Assay results taken from PubChem BioAssay (NCI).
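Cultured in 96-well plates, cells were exposed to test compound for 48 hours across five concentrations. TGI denotes the concentration required for complete inhibition of growth.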

Tests used:
Test in all cases: NCI anticancer screen, dose series, 48 h
[1] = test system: DMS 114 small cell lung
[2] = test system: HOP-92 NSCLC
[3] = test system: HCT-116 colon
[4] = test system: UO-31 renal
[5] = test system: SF-539 CNS
[6] = test system: A498 renal
[7] = test system: MOLT-4 leukemia
[8] = test system: NCI-H226 lung
[9] = test system: U251 CNS
[10] = test system: RXF 393 renal
[11] = test system: COLO 205 colon
[12] = test system: LOX IMVI melanoma
[13] = test system: HCT-15 colon
[14] = test system: MALME-3M melanoma
[15] = test system: SNB-78 CNS
[16] = test system: A549 NSCLC
[17] = test system: SR leukemia
[18] = test system: SNB-75 CNS
[19] = test system: M19-MEL melanoma
[20] = test system: OVCAR-4 ovarian
[21] = test system: UACC-62 melanoma
[22] = test system: HL-60(TB) leukemia
[23] = test system: SN12C renal
[24] = test system: SK-MEL-5 melanoma
[25] = test system: KM20L2 colon
[26] = test system: HT29 colon
[27] = test system: XF 498 CNS
[28] = test system: DMS 273 small cell lung
[29] = test system: DLD-1 colon
[30] = test system: SK-OV-3 ovarian
[31] = test system: OVCAR-5 ovarian
[32] = test system: 786-0 renal
[33] = test system: OVCAR-3 ovarian
[34] = test system: K-562 leukemia
[35] = test system: UACC-257 melanoma
[36] = test system: HOP-62 NSCLC
[37] = test system: HCC-2998 colon
[38] = test system: EKVX NSCLC
[39] = test system: NCI-H23 lung
[40] = test system: IGROV1 ovarian
[41] = test system: CAKI-1 renal
[42] = test system: RPMI-8226 leukemia
[43] = test system: TK-10 renal
[44] = test system: SW-620 colon
[45] = test system: SF-295 CNS
[46] = test system: NCI-H460 lung
[47] = test system: CCRF-CEM leukemia
[48] = test system: NCI-H522 lung
[49] = test system: OVCAR-8 ovarian
[50] = test system: LXFL 529 NSCLC
[51] = test system: SF-268 CNS
[52] = test system: SNB-19 CNS
[53] = test system: KM12 colon
[54] = test system: M14 melanoma
[55] = test system: SK-MEL-2 melanoma
[56] = test system: ACHN renal
[57] = test system: SK-MEL-28 melanoma
[58] = test system: HOP-18 NSCLC
[59] = test system: RXF-631 renal

COC(=O)c1c(C(=O)OC)c(-c2ccccc2)n(-c2ccccc2)c(=O)c1-c1ccccc1
TGI [1]: > 100 µM
TGI [2]: 83 µM
TGI [3]: > 100 µM
TGI [4]: > 100 µM
TGI [5]: > 100 µM
TGI [6]: > 100 µM
TGI [7]: > 100 µM
TGI [8]: > 100 µM
TGI [9]: > 100 µM
TGI [10]: 60.8 µM
TGI [11]: > 100 µM
TGI [12]: > 100 µM
TGI [13]: > 100 µM
TGI [14]: > 100 µM
TGI [15]: > 100 µM
TGI [16]: > 100 µM
TGI [17]: > 100 µM
TGI [18]: 64 µM
TGI [19]: > 100 µM
TGI [20]: 78.1 µM
TGI [21]: > 100 µM
TGI [22]: > 100 µM
TGI [23]: > 100 µM
TGI [24]: > 100 µM
TGI [25]: > 100 µM
TGI [26]: > 100 µM
TGI [27]: 68.8 µM
TGI [28]: > 100 µM
TGI [29]: > 100 µM
TGI [30]: > 100 µM
TGI [31]: > 100 µM
TGI [32]: > 100 µM
TGI [33]: > 100 µM
TGI [34]: > 100 µM
TGI [35]: > 100 µM
TGI [36]: > 100 µM
TGI [37]: > 100 µM
TGI [38]: > 100 µM
TGI [39]: > 100 µM
TGI [40]: > 100 µM
TGI [41]: > 100 µM
TGI [42]: > 100 µM
TGI [43]: > 100 µM
TGI [44]: > 100 µM
TGI [45]: > 100 µM
TGI [46]: > 100 µM
TGI [47]: > 100 µM
TGI [48]: > 100 µM
TGI [49]: > 100 µM
TGI [50]: > 100 µM
TGI [51]: > 100 µM
TGI [52]: > 100 µM
TGI [53]: > 100 µM
TGI [54]: > 100 µM

COC(=O)Cc1cc(=O)n2c3ccccc3n(C)c2c1C#N
TGI [55]: > 100 µM
TGI [1]: > 100 µM
TGI [3]: > 100 µM
TGI [4]: > 100 µM
TGI [5]: > 100 µM
TGI [6]: > 100 µM
TGI [7]: > 100 µM
TGI [8]: > 100 µM
TGI [9]: > 100 µM
TGI [10]: > 100 µM
TGI [11]: > 100 µM
TGI [12]: > 100 µM
TGI [13]: > 100 µM
TGI [14]: > 100 µM
TGI [56]: > 100 µM
TGI [15]: > 100 µM
TGI [16]: > 100 µM
TGI [17]: > 100 µM
TGI [18]: > 100 µM
TGI [19]: > 100 µM
TGI [20]: > 100 µM
TGI [57]: > 100 µM
TGI [22]: > 100 µM
TGI [23]: > 100 µM
TGI [24]: > 100 µM
TGI [25]: > 100 µM
TGI [26]: > 100 µM
TGI [27]: > 100 µM
TGI [28]: > 100 µM
TGI [29]: > 100 µM
TGI [30]: > 100 µM
TGI [31]: > 100 µM
TGI [32]: > 100 µM
TGI [33]: > 100 µM
TGI [34]: > 100 µM
TGI [35]: > 100 µM
TGI [36]: > 100 µM
TGI [37]: > 100 µM
TGI [38]: > 100 µM
TGI [39]: > 100 µM
TGI [40]: > 100 µM
TGI [41]: > 100 µM
TGI [42]: > 100 µM
TGI [43]: > 100 µM
TGI [44]: > 100 µM
TGI [45]: > 100 µM
TGI [46]: > 100 µM
TGI [49]: > 100 µM
TGI [51]: > 100 µM
TGI [52]: > 100 µM
TGI [53]: > 100 µM
TGI [54]: > 100 µM

O=C(/C=C/c1ccccc1)c1ccc(Cl)cc1Cl
TGI [1]: 33.3 µM
TGI [2]: 69.3 µM
TGI [58]: 60.5 µM
TGI [3]: 24 µM
TGI [4]: > 100 µM
TGI [5]: 37.9 µM
TGI [6]: 50.6 µM
TGI [7]: 42.9 µM
TGI [8]: 89.9 µM
TGI [9]: 34.6 µM
TGI [11]: 37.2 µM
TGI [13]: 26.4 µM
TGI [14]: 46.1 µM
TGI [56]: 34.1 µM
TGI [15]: 49.3 µM
TGI [16]: 60.3 µM
TGI [18]: 92.7 µM
TGI [59]: > 100 µM
TGI [19]: 44.5 µM
TGI [20]: 46.1 µM
TGI [21]: 30 µM
TGI [22]: 36.2 µM
TGI [23]: 57.7 µM
TGI [24]: 31.4 µM
TGI [25]: 45.7 µM
TGI [26]: 32.9 µM
TGI [28]: 34 µM
TGI [29]: 33.3 µM
TGI [30]: 85.3 µM
TGI [31]: 39.5 µM
TGI [32]: 33.2 µM
TGI [33]: 40.2 µM
TGI [34]: 30.1 µM
TGI [35]: 63.8 µM
TGI [36]: > 100 µM
TGI [37]: 40.9 µM
TGI [38]: 62.3 µM
TGI [39]: 75.8 µM
TGI [40]: 40.5 µM
TGI [41]: 64 µM
TGI [42]: 28.4 µM
TGI [43]: > 100 µM
TGI [44]: 17.9 µM
TGI [45]: 41.2 µM
TGI [46]: 33.4 µM
TGI [47]: 33.1 µM
TGI [48]: 28.3 µM
TGI [49]: 28.4 µM
TGI [50]: 31.1 µM
TGI [51]: 59.8 µM
TGI [52]: 65.2 µM
TGI [53]: 34.2 µM
TGI [54]: 45.3 µM
